The source of these data is US11698357B2, “Method for screening, isolating and purifying analytes” (CHANG GUNG UNIVERSITY, priority 2019, dated 2023).

The test system of data set [1] is MES-SA/Dx5 cells. Briefly: Percentage of live cells by fluorescent dye staining (DiB / EthD-1) and microscopy. It counts as cell-based, human. Here is the method:
(§1) In the present embodiment, cancer cell lines with (MES-SA/Dx5 cells; abbreviated as “Dx5” from the BCRC of Food Industry Research and Development Institute (FIRDI), Taiwan) and without (MES-SA cells from the BCRC of FIRDI) anti-cancer drug resistance were separately treated with various concentrations (0, 2.5, 5.0, 7.5, 10.0, 12.5, 15.0 μg ml^−1) of doxorubicin (doxorubicin hydrochloride; Enzo Life Sciences, CH) for 48 hours. The percentage of live cells was then evaluated by a combination of fluorescent dye staining and microscopic observation. Briefly, the drug-treated Dx5 cells were stained with the DiB cytoplasmic membrane labelling dye (Biotium, CA USA) and EthD-1 fluorescent dye (ethidium homodimer-1; Thermo Fisher Scientific, MA USA) to identify the living (blue staining), and dead (red staining) Dx5 cells, respectively. The drug-treated MES-SA cells were stained with Calcein-AM and EthD-1 fluorescent dyes (LIVE/DEAD1 Viability/Cytotoxicity Kit L-3224; Thermo Fisher Scientific, MA USA) to identify the living (green staining) and dead (red staining) cells, respectively. All the assays were performed according to the manufacturer's instructions. This was followed by microscopic observation using a fluorescence microscope (Zoom 160, OPTEM, USA). The overall viability of the cancer cells was then evaluated by determining the number of live cells relative to that of whole cells.

Data set [2] has as its system MES-SA cells. The data set is described as follows: MTT assay cell viability. It counts as cell-based, human. The following applies: 48 hours. The procedure:
(§2) Cell viability was also evaluated by assaying the intercellular dehydrogenase activity of cells using the commonly used MTT (thiazolyl blue tetrazolium bromide; Sigma Aldrich, MO USA) assay. Briefly, the cancer cells (i.e., MES-SA and Dx5 cells) were separately treated with doxorubicin as mentioned above. The drug-treated cancer cells were then assayed for viability (%) based on the manufacturer's instructions for the MTT assay kit.
Background: Tetrazolium dyes change colour on reduction, which living cells bring about.

Data set [3] relates to MES-SA cells. Briefly: Percentage of live cells by fluorescent dye staining (Calcein-AM / EthD-1) and microscopy. It counts as cell-based, human. The procedure: as §1
In data set [4] the test system is MES-SA/Dx5 cells. The data set is described as follows: MTT assay cell viability. It counts as cell-based. The following applies: Homo sapiens, 5.0 μg ml^−1 doxorubicin, 48 hours. Here is the method:
as §2

Setting [5] is: 5.0 μg ml^−1 doxorubicin for 48 hours.
Setting [6] is: 5.0 μg ml^−1 doxorubicin, 48 hours.

Consider `COc1cccc2c1C(=O)c1c(O)c3c(c(O)c1C2=O)C[C@@](O)(C(=O)CO)C[C@@H]3O[C@H]1C[C@H](N)[C@H](O)[C@H](C)O1` [doxorubicin], for which the values for the dead cell percentage in the data set on MES-SA/Dx5 cells [1] (setting [5]) and in the data set on MES-SA cells [3] (setting [5]) were 4.5% and 73.9%, respectively. Besides, the figures for the “percentage of live cells” value in the data set with MES-SA/Dx5 cells [1] (setting [6]) and in the data set on MES-SA cells [3] (setting [6]) were 95.5% and 26.1%, respectively. Besides, the viability – broadly, the share of living cells, or the viability signal relative to a control – at 5 µg/mL is 2.2% in the data set with MES-SA cells [2] (Homo sapiens, 5.0 μg ml^−1 doxorubicin) and 73.5% in the data set with MES-SA/Dx5 cells [4]. In addition, the “cell viability (%) (MTT)” value in the data set with MES-SA cells [2] (various concentrations of doxorubicin) was around 0%.
